Experimental data reported in PubChem BioAssay (NCI).
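48-hour exposure; five concentrations; linearly interpolated endpoints. TGI: total growth inhibition.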

Tests used:
Experiment in all cases: inhibition of tumour cell growth, NCI panel, 48 h
[1] = test system: DU-145 prostate
[2] = test system: HOP-92 NSCLC
[3] = test system: K-562 leukemia
[4] = test system: NCI-H460 lung
[5] = test system: OVCAR-8 ovarian
[6] = test system: RPMI-8226 leukemia
[7] = test system: SNB-19 CNS
[8] = test system: SNB-75 CNS
[9] = test system: U251 CNS
[10] = test system: UO-31 renal

`Cc1ccc(NC2=NCCO2)c2c1CCC2` showed a TGI [1] greater than 100 µM, a TGI [2] of 70 µM and a TGI [3] greater than 100 µM. The TGI [4] was greater than 100 µM, the TGI [5] was greater than 100 µM and the TGI [6] was greater than 100 µM. It also gave a TGI [7] greater than 100 µM, a TGI [8] of 84.5 µM and a TGI [9] greater than 100 µM. For the same molecule, the TGI [10] was greater than 100 µM.
In the case of `O=S(=O)(c1ccc(-c2nnc(-c3ccc(F)cc3)o2)cc1)c1ccc(-c2nnc(-c3ccc(F)cc3)o2)cc1`, the TGI [1] is reported as greater than 100 µM, the TGI [2] is reported as greater than 100 µM and the TGI [3] is reported as greater than 100 µM. It also gave a TGI [4] greater than 100 µM, a TGI [5] greater than 100 µM and a TGI [6] greater than 100 µM. For the same molecule, the TGI [7] was greater than 100 µM, the TGI [8] was 26 µM and the TGI [9] was greater than 100 µM. For the same molecule, the TGI [10] was greater than 100 µM.
